Measurements reported in US8916681B2, “Compound, use and method” (Medical Research Council, priority 2007, dated 2014).
Non-standard residues stand in square brackets, D forms with d. Residues, ends and D or L forms follow the SMILES beside them.

Experiments:
Assay type in all cases: cell-based
[1] = tested on: HUVECs (Human Umbilical Vein Endothelial Cells); assay: Cell migration (wound healing) assay in HUVECs; conditions: 22 hrs
Experimental: Human Umbilical Vein Endothelial Cells (HUVECs) isolated from neonatal umbilical cord were used as they endogenously express gpr-54, which is though to be involved in cell migration in the placenta. Chinese hamster ovary (CHO) cells which stably express the human gpr-54 receptor were used as a model cell line for wound healing assays. […] Complete media was added along with 1 nM Kisspeptin-10 for HUVECs and 100 nM Kisspeptin-10 for CHO cells, the optimal concentrations to inhibit cell migration (wound healing) in each cell type, in the presence and absence of antagonist 233, 234, 273 and 276 for HUVECs and 234 for CHOs. […] Cells were photographed on the axiovert 2000 at 20× magnification in phase contrast (Hori et al., 2001. Metastin suppresses the motility and growth of CHO cells transfected with its receptor. Biochem Biophys Res Commun 286, 958-963; Stafford et al., 2002, Identification and characterization of mouse metastasis-suppressor KiSS1 and its G-protein-coupled receptor. Cancer Res 62, 5399-5404).

GPR54 [2] = biological target: T1, GPR54 (Homo sapiens, UniProt Q969F8); assay: Inositol phosphate (IP) stimulation assay in CHO/gpr-54 cells; design: G. Vassart, Univ; Brussels; conditions: CHO cells stably-expressing human gpr-54
T1 sequence (Q969F8 whole entry): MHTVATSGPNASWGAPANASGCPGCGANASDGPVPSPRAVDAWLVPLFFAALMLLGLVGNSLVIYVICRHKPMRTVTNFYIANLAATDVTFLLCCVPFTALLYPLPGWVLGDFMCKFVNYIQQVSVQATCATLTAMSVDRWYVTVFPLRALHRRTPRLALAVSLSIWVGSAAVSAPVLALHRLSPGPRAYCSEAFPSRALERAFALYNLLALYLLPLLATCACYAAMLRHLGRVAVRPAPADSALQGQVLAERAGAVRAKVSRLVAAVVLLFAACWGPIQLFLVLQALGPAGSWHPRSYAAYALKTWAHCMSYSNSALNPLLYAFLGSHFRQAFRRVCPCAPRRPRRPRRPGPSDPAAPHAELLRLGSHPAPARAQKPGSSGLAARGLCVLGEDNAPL
Experimental: Inositol-3-phoshate Stimulation Assay—Cell monolayers had 0.5 mls HEPES modified DMEM supplemented with 1% Penicillin/Streptomycin for 30 mins at 37° C. to block IP3 breakdown. Cells were then stimulated with 0.5 mls Kisspeptin-10 and analogues (10 pM-1 uM) diluted at 1:1000 in the above media for 1 hr at 37° C., then in 10 mM Formic acid at 4° C. for 1 hr to lyse cells. Lysate was then transferred to plastic tubes containing 0.5 mls Dowex resin to bind the radioactive IP3 and the resin was then washed with 1 ml H2O. The resin was then washed with 60 mM NH4 formate/5 mM Sodium tetraborate followed by 1M NH4 formate/0.1M Formic acid to release the bound radiation. Then 800 μls of the radioactive solution were transferred to scintillation vials containing 2.5 mls scintillation fluid and radioactivity counted on a Beta counter for 60 seconds.
IP stimulation refers to intrinsic residual agonist activity where estimateable.
The cells were maintained in Dulbecco's modified Eagle's medium (DMEM; Sigma) supplemented with 10% fetal calf serum, 2% glutamine and 1% penicillin (10,000 units/ml)/streptomycin (10,000 mg/ml) at 37° C. in a humidified 5% CO2 atmosphere.
Prior to stimulation CHO/gpr-54 cells were washed twice with Dulbecco's phosphate-buffered saline (DPBS; without calcium or magnesium) then incubated overnight with ^3H-myoinositol, labeled HEPES-modified DMEM with 1% penicillin/streptomycin at 37° C. HEPES-modified DMEM supplemented with 1% penicillin/streptomycin and 1% lithium chloride (0.5 ml) was added to cells for 30 min at 37° C. to block IP hydrolysis. Cells were then stimulated with 0.5 ml kisspeptin-10 and analogues (10 pM-1 μM) diluted at 1:100 in the above media for 1 h at 37° C., then with 10 mM formic acid at 4° C. for 1 h to lyse cells. Lysates were transferred to plastic tubes containing 0.5 ml Dowex resin to bind the radioactive IP and the resin was then washed with 1 ml water. The resin was next washed with 60 mM ammonium formate/5 mM sodium tetraborate. followed by 1M ammonium formate/0.1M formic acid to release the bound radiation. Then 800 μl of the radioactive solution were transferred to scintillation vials containing 2.5 ml scintillation fluid and radioactivity counted on a Beta counter for 60 sec. Experiments were repeated 3-5 times. IP production was plotted as mean values±SEM and analyzed by using a Student's t-Test (p≧0.05).

GPR54 [3] = biological target: T1, GPR54; assay: Inositol phosphate (IP) antagonism assay: inhibition of 10 nM kisspeptin-10 stimulation of IP in CHO/gpr-54 cells; design: G. Vassart, Univ; Brussels; conditions: for IC50 / Inhibition of IP stimulation by 10 nM Agonist: % Inhibition of Max: CHO cells, 10 nM kisspeptin-10; for IC50: unit inferred, given in M
Experimental: Inositol-3-phoshate Antagonistic Assay—Cell monolayers had 0.5 mls HEPES modified DMEM supplemented with […] for 30 mins at 37° C. to block IP3 breakdown. Cells were then stimulated with 0.25 mls 10 nM Kisspeptin-10 plus 0.25 mls of 10 nM Kisspeptin-10 or analogues (10 pM-10 uM) diluted at 1:1000 in the above media for 1 hr at 37° C., then in 10 mM Formic acid at 4° C. for 1 hr to lyse cells. Lysate was then transferred to plastic tubes containing 0.5 mls Dowex resin to bind the radioactive IP3 and the resin was then washed with 1 ml H2O. The resin was then washed with 60 mM NH4 formate/5 mM Sodium tetraborate followed by 1M NH4 formate/0.1M Formic acid to release the bound radiation. Then 800 μls of the radioactive solution were transferred to scintillation vials containing 2.5 mls scintillation fluid and radioactivity counted on a Beta counter for 60 seconds.
Chinese hamster ovary (CHO) cells stably-expressing the human gpr-54 receptor (CHO/gpr-54) were obtained from Prof. G. Vassart, Univ. Brussels. The cells were maintained in Dulbecco's modified Eagle's medium (DMEM; Sigma) supplemented with 10% fetal calf serum, 2% glutamine and 1% penicillin (10,000 units/ml)/streptomycin ([…]) at 37° C. in a humidified 5% CO2 atmosphere.
Experiments were repeated 3-5 times. IP production was plotted as mean values±SEM and analyzed using a Student's t-Test ([…]).

| Structure (SMILES) | stimulation of IP by the peptide alone (GPR54 [2]) | IC50 (GPR54 [3]) [nM] | Inhibition of IP stimulation by 10 nM Agonist: % Inhibition of Max (GPR54 [3]) [%] | kisspeptin antagonist function (GPR54 [3]; with N-terminal Antennapedia heptapeptide) | inhibition of migration by 1 nM Kisspeptin in the presence of peptide [1] [%] |
| --- | --- | --- | --- | --- | --- |
| CC(=O)N[C@@H](Cc1ccc(O)cc1)C(=O)N[C@@H](CC(N)=O)C(=O)N[C@@H](Cc1c[nH]c2ccccc12)C(=O)N[C@@H](CC(N)=O)C(=O)N[C@H](C)C(=O)N[C@@H](Cc1ccccc1)C(=O)NCC(=O)N[C@H](Cc1c[nH]c2ccccc12)C(=O)N[C@@H](CCCNC(=N)N)C(=O)N[C@@H](Cc1ccccc1)C(N)=O [Peptide 233] (Ac-YNWN[dA]FG[dW]RF-NH2) | little or no stimulation | 20 |  |  | 10 |
| CC(=O)N[C@H](Cc1ccc(O)cc1)C(=O)N[C@@H](CC(N)=O)C(=O)N[C@@H](Cc1c[nH]c2ccccc12)C(=O)N[C@@H](CC(N)=O)C(=O)NCC(=O)N[C@@H](Cc1ccccc1)C(=O)NCC(=O)N[C@H](Cc1c[nH]c2ccccc12)C(=O)N[C@@H](CCCNC(=N)N)C(=O)N[C@@H](Cc1ccccc1)C(N)=O [Peptide 230] (Ac-[dY]NWNGFG[dW]RF-NH2) | little or no stimulation | 50 |  |  |  |
| CC(=O)N[C@@H](Cc1ccc(O)cc1)C(=O)N[C@H](CC(N)=O)C(=O)N[C@@H](Cc1c[nH]c2ccccc12)C(=O)N[C@@H](CC(N)=O)C(=O)NCC(=O)N[C@@H](Cc1ccccc1)C(=O)NCC(=O)N[C@H](Cc1c[nH]c2ccccc12)C(=O)N[C@@H](CCCNC(=N)N)C(=O)N[C@@H](Cc1ccccc1)C(N)=O [Peptide 232] (Ac-Y[dN]WNGFG[dW]RF-NH2) | little or no stimulation | 30 |  |  |  |
| CC(=O)N[C@H](Cc1ccc(O)cc1)C(=O)N[C@@H](CC(N)=O)C(=O)N[C@@H](Cc1c[nH]c2ccccc12)C(=O)N[C@@H](CC(N)=O)C(=O)N[C@@H](CO)C(=O)N[C@@H](Cc1ccccc1)C(=O)NCC(=O)N[C@H](Cc1c[nH]c2ccccc12)C(=O)N[C@@H](CCCNC(=N)N)C(=O)N[C@@H](Cc1ccccc1)C(N)=O [Peptide 238] (Ac-[dY]NWNSFG[dW]RF-NH2) |  |  | 0 |  |  |
| CC(C)C[C@H](NC(=O)CNC(=O)[C@H](Cc1ccccc1)NC(=O)CNC(=O)[C@H](CC(N)=O)NC(=O)[C@H](Cc1c[nH]c2ccccc12)NC(=O)[C@H](CC(N)=O)NC(=O)[C@@H](N)Cc1ccc(O)cc1)C(=O)N[C@@H](CCCNC(=N)N)C(=O)N[C@@H](Cc1ccccc1)C(N)=O [Peptide 208] (H-YNWNGFGLRF-NH2) |  | 1000 | 55 |  |  |
| CC(=O)N[C@@H](Cc1ccccc1)C(=O)NCC(=O)N[C@@H](CC(C)C)C(=O)N[C@@H](CCCNC(=N)N)C(=O)N[C@@H](Cc1c[nH]c2ccccc12)C(N)=O [Peptide 189] |  |  | 94 |  |  |
| CC(=O)N[C@@H](Cc1ccc(O)cc1)C(=O)N[C@H](C)C(=O)N[C@@H](Cc1c[nH]c2ccccc12)C(=O)N[C@@H](CC(N)=O)C(=O)NCC(=O)N[C@@H](Cc1ccccc1)C(=O)NCC(=O)N[C@H](Cc1c[nH]c2ccccc12)C(=O)N[C@@H](CCCNC(=N)N)C(=O)N[C@@H](Cc1ccccc1)C(N)=O [Peptide 236] (Ac-Y[dA]WNGFG[dW]RF-NH2) | little or no stimulation | 50 |  |  |  |
| CC(=O)N[C@@H](Cc1ccc(O)cc1)C(=O)N[C@@H](CC(N)=O)C(=O)N[C@H](Cc1c[nH]c2ccccc12)C(=O)N[C@@H](CC(N)=O)C(=O)NCC(=O)N[C@@H](Cc1ccccc1)C(=O)NCC(=O)N[C@H](Cc1c[nH]c2ccccc12)C(=O)N[C@@H](CCCNC(=N)N)C(=O)N[C@@H](Cc1ccccc1)C(N)=O [Peptide 231] (Ac-YN[dW]NGFG[dW]RF-NH2) |  | 0.1 | 55 |  |  |
| CC(C)C[C@H](NC(=O)CNC(=O)[C@@H](Cc1ccccc1)NC(=O)CNC(=O)[C@H](CC(N)=O)NC(=O)[C@H](Cc1c[nH]c2ccccc12)NC(=O)[C@H](CC(N)=O)NC(=O)[C@@H](N)Cc1ccc(O)cc1)C(=O)N[C@@H](CCCNC(=N)N)C(=O)N[C@@H](Cc1ccccc1)C(N)=O [Peptide 211] (H-YNWNG[dF]GLRF-NH2) |  | 1000 | 73 |  |  |
| CC(=O)N[C@@H](Cc1ccc(O)cc1)C(=O)N[C@@H](CC(N)=O)C(=O)N[C@H](C)C(=O)N[C@@H](CC(N)=O)C(=O)NCC(=O)N[C@@H](Cc1ccccc1)C(=O)NCC(=O)N[C@H](Cc1c[nH]c2ccccc12)C(=O)N[C@@H](CCCNC(=N)N)C(=O)N[C@@H](Cc1ccccc1)C(N)=O [Peptide 235] (Ac-YN[dA]NGFG[dW]RF-NH2) | little or no stimulation | 10 |  |  |  |
| CC(=O)N[C@@H](Cc1ccccc1)C(=O)NCC(=O)N[C@@H](CC(C)C)C(=O)N[C@@H](CCCNC(=N)N)C(=O)N[C@@H](Cc1ccccc1)C(N)=O [Peptide 188] (Ac-FGLRF-NH2) |  |  | 74 |  |  |

Continued, in another order:

| stimulation of IP by the peptide alone (GPR54 [2]) | IC50 (GPR54 [3]) [nM] | Inhibition of IP stimulation by 10 nM Agonist: % Inhibition of Max (GPR54 [3]) [%] | kisspeptin antagonist function (GPR54 [3]; with N-terminal Antennapedia heptapeptide) | Structure (SMILES) | inhibition of migration by 1 nM Kisspeptin in the presence of peptide [1] [%] |
| --- | --- | --- | --- | --- | --- |
|  | 0.1 | 73 |  | CC(=O)N[C@H](C)C(=O)N[C@@H](CC(N)=O)C(=O)N[C@@H](Cc1c[nH]c2ccccc12)C(=O)N[C@@H](CC(N)=O)C(=O)N1CCC[C@H]1C(=O)N[C@@H](Cc1ccccc1)C(=O)NCC(=O)N[C@H](Cc1c[nH]c2ccccc12)C(=O)N[C@@H](CCCNC(=N)N)C(=O)N[C@@H](Cc1ccccc1)C(N)=O [Peptide 274] (Ac-[dA]NWNPFG[dW]RF-NH2) |  |
|  | 4 | 79 |  | CC(=O)N[C@H](C)C(=O)N[C@@H](CC(N)=O)C(=O)N[C@@H](Cc1c[nH]c2ccccc12)C(=O)N[C@@H](CC(N)=O)C(=O)N[C@H](CO)C(=O)N[C@@H](Cc1ccccc1)C(=O)NCC(=O)N[C@H](Cc1c[nH]c2ccccc12)C(=O)N[C@@H](CCCNC(=N)N)C(=O)N[C@@H](Cc1ccccc1)C(N)=O [Peptide 273] (Ac-[dA]NWN[dS]FG[dW]RF-NH2) | 10 |
|  |  | 65 |  | CC(=O)N[C@H](C)C(=O)N[C@@H](CC(N)=O)C(=O)N[C@@H](Cc1c[nH]c2ccccc12)C(=O)N[C@@H](CC(N)=O)C(=O)NCC(=O)N[C@@H](Cc1ccccc1)C(=O)NCC(=O)N[C@H](CC(C)C)C(=O)N[C@@H](CCCNC(=N)N)C(=O)N[C@@H](Cc1ccccc1)C(N)=O [Peptide 276] (Ac-[dA]NWNGFG[dL]RF-NH2) |  |
|  | 50 | 80 |  | CC(=O)N[C@H](C)C(=O)N[C@@H](CC(N)=O)C(=O)N[C@@H](Cc1c[nH]c2ccccc12)C(=O)N[C@@H](CC(N)=O)C(=O)NCC(=O)N[C@H](Cc1c[nH]c2ccccc12)C(=O)NCC(=O)N[C@H](Cc1c[nH]c2ccccc12)C(=O)N[C@@H](CCCNC(=N)N)C(=O)N[C@@H](Cc1ccccc1)C(N)=O [Peptide 246] (Ac-[dA]NWNG[dW]G[dW]RF-NH2) |  |
|  |  | 0 |  | CC(=O)N[C@H](Cc1ccc(O)cc1)C(=O)N[C@H](CC(N)=O)C(=O)N[C@@H](Cc1c[nH]c2ccccc12)C(=O)N[C@@H](CC(N)=O)C(=O)N[C@@H](CO)C(=O)N[C@@H](Cc1ccccc1)C(=O)NCC(=O)N[C@@H](Cc1c[nH]c2ccccc12)C(=O)N[C@@H](CCCNC(=N)N)C(=O)N[C@@H](Cc1ccccc1)C(N)=O [Peptide 239] (Ac-[dY][dN]WNSFGWRF-NH2) |  |
|  | 5 | 57 | retains kisspeptin antagonist function | CSCC[C@H](NC(=O)[C@H](CCCNC(=N)N)NC(=O)[C@H](CCCNC(=N)N)NC(C)=O)C(=O)N[C@@H](CCCCN)C(=O)N[C@@H](Cc1c[nH]c2ccccc12)C(=O)N[C@@H](CCCCN)C(=O)N[C@@H](CCCCN)C(=O)N[C@@H](Cc1ccc(O)cc1)C(=O)N[C@H](C)C(=O)N[C@@H](CC(N)=O)C(=O)N[C@@H](Cc1c[nH]c2ccccc12)C(=O)N[C@@H](CC(N)=O)C(=O)NCC(=O)N[C@@H](Cc1ccccc1)C(=O)NCC(=O)N[C@H](Cc1c[nH]c2ccccc12)C(=O)N[C@@H](CCCNC(=N)N)C(=O)N[C@@H](Cc1ccccc1)C(N)=O [Peptide 271, ac.R-R-M-K-W-K-K-Y-(D)A-N-W-N-G-F-G-(D)W-R-F.z] (Ac-RRMKWKKY[dA]NWNGFG[dW]RF-NH2) |  |
